Test results reported in the supplement of paper PMC10307832.

Columns and labels:
Assay in all cases: relative viability (nuclei count vs DMSO), 5 days (fraction); higher = more cells survive
[1] = compound: C1COCCN1C2=NC(=NC3=C2OC4=C3C=CC=N4)C5=CC(=CC=C5)NC(=O)C6=CN=C(C=C6)N + CS(=O)(=O)CCNCc1ccc(-c2ccc3ncnc(Nc4ccc(OCc5cccc(F)c5)c(Cl)c4)c3c2)o1 [Lapatinib] (partner 2 µM)
In short: (§1)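 Dosing by pin tool came one day after lung cancer cell lines were seeded in 1536-well plates, using either one drug or a fixed anchor-drug dose plus five library-drug doses (not always all listed) in √10 steps. After 5 days, nuclei were counted on 4× images. Relative viability is treated-well nuclei count divided by vehicle-well nuclei count, and values are medians of duplicate plates.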

[2] = compound: C1COCCN1C2=NC(=NC3=C2OC4=C3C=CC=N4)C5=CC(=CC=C5)NC(=O)C6=CN=C(C=C6)N + NC(=O)Nc1cc(-c2cccc(F)c2)sc1C(=O)N[C@H]1CCCNC1 [AZD7762] (partner 0.2 µM)
In short: as §1

Entinostat + Trametinib = compound: Nc1ccccc1NC(=O)c1ccc(CNC(=O)OCc2cccnc2)cc1 [Entinostat] + CC(=O)Nc1cccc(-n2c(=O)n(C3CC3)c(=O)c3c(Nc4ccc(I)cc4F)n(C)c(=O)c(C)c32)c1 [Trametinib] (partner 0.02 µM)
In short: as §1

Entinostat + Olaparib = compound: Nc1ccccc1NC(=O)c1ccc(CNC(=O)OCc2cccnc2)cc1 [Entinostat] + O=C(c1cc(Cc2n[nH]c(=O)c3ccccc23)ccc1F)N1CCN(C(=O)C2CC2)CC1 [Olaparib] (partner 8 µM)
In short: as §1

Cell Line: HCC-78
- relative viability ([1]; first compound 0.02 µM): 0.671
- relative viability ([1]; first compound 0.06325 µM): 0.792
- relative viability ([1]; first compound 0.2 µM): 0.767
- relative viability ([1]; first compound 0.6325 µM): 0.762
- relative viability ([1]; first compound 2 µM): 0.72
- relative viability ([2]; first compound 0.02 µM): 0.628
- relative viability ([2]; first compound 0.06325 µM): 0.642
- relative viability ([2]; first compound 0.2 µM): 0.576
- relative viability ([2]; first compound 0.6325 µM): 0.685
- relative viability ([2]; first compound 2 µM): 0.589
- relative viability (Entinostat + Trametinib; first compound 0.02 µM): 0.706
- relative viability (Entinostat + Trametinib; first compound 0.06325 µM): 0.662
- relative viability (Entinostat + Trametinib; first compound 0.2 µM): 0.505
- relative viability (Entinostat + Trametinib; first compound 0.6325 µM): 0.377
- relative viability (Entinostat + Trametinib; first compound 2 µM): 0.253
- relative viability (Entinostat + Olaparib; first compound 0.02 µM): 0.771
- relative viability (Entinostat + Olaparib; first compound 0.06325 µM): 0.722
- relative viability (Entinostat + Olaparib; first compound 0.2 µM): 0.577
- relative viability (Entinostat + Olaparib; first compound 0.6325 µM): 0.386
- relative viability (Entinostat + Olaparib; first compound 2 µM): 0.355

Cell Line: HCC-366
- relative viability ([1]; first compound 0.02 µM): 1.35
- relative viability ([1]; first compound 0.06325 µM): 1.04
- relative viability ([1]; first compound 0.2 µM): 0.95
- relative viability ([1]; first compound 0.6325 µM): 1.03
- relative viability ([1]; first compound 2 µM): 0.453
- relative viability ([2]; first compound 0.02 µM): 0.329
- relative viability ([2]; first compound 0.06325 µM): 0.419
- relative viability ([2]; first compound 0.2 µM): 0.213
- relative viability ([2]; first compound 0.6325 µM): 0.216
- relative viability ([2]; first compound 2 µM): 0.174
- relative viability (Entinostat + Trametinib; first compound 0.02 µM): 0.42
- relative viability (Entinostat + Trametinib; first compound 0.06325 µM): 0.306
- relative viability (Entinostat + Trametinib; first compound 0.2 µM): 0.253
- relative viability (Entinostat + Trametinib; first compound 0.6325 µM): 0.218
- relative viability (Entinostat + Trametinib; first compound 2 µM): 0.0673
- relative viability (Entinostat + Olaparib; first compound 0.02 µM): 0.343
- relative viability (Entinostat + Olaparib; first compound 0.06325 µM): 0.311
- relative viability (Entinostat + Olaparib; first compound 0.2 µM): 0.212
- relative viability (Entinostat + Olaparib; first compound 0.6325 µM): 0.132
- relative viability (Entinostat + Olaparib; first compound 2 µM): 0.0516

Cell Line: HCC-827
- relative viability ([1]; first compound 0.02 µM): 0.172
- relative viability ([1]; first compound 0.06325 µM): 0.214
- relative viability ([1]; first compound 0.2 µM): 0.254
- relative viability ([1]; first compound 0.6325 µM): 0.186
- relative viability ([1]; first compound 2 µM): 0.21
- relative viability ([2]; first compound 0.02 µM): 0.191
- relative viability ([2]; first compound 0.06325 µM): 0.184
- relative viability ([2]; first compound 0.2 µM): 0.167
- relative viability ([2]; first compound 0.6325 µM): 0.202
- relative viability ([2]; first compound 2 µM): 0.198
- relative viability (Entinostat + Trametinib; first compound 0.02 µM): 0.516
- relative viability (Entinostat + Trametinib; first compound 0.06325 µM): 0.474
- relative viability (Entinostat + Trametinib; first compound 0.2 µM): 0.406
- relative viability (Entinostat + Trametinib; first compound 0.6325 µM): 0.338
- relative viability (Entinostat + Trametinib; first compound 2 µM): 0.203
- relative viability (Entinostat + Olaparib; first compound 0.02 µM): 0.587
- relative viability (Entinostat + Olaparib; first compound 0.06325 µM): 0.623
- relative viability (Entinostat + Olaparib; first compound 0.2 µM): 0.488
- relative viability (Entinostat + Olaparib; first compound 0.6325 µM): 0.322
- relative viability (Entinostat + Olaparib; first compound 2 µM): 0.237

Cell Line: IA-LM
- relative viability ([1]; first compound 0.02 µM): 0.848
- relative viability ([1]; first compound 0.06325 µM): 0.67
- relative viability ([1]; first compound 0.2 µM): 0.621
- relative viability ([1]; first compound 0.6325 µM): 0.588
- relative viability ([1]; first compound 2 µM): 0.276
- relative viability (Entinostat + Olaparib; first compound 0.02 µM): 0.807
- relative viability (Entinostat + Olaparib; first compound 0.06325 µM): 0.845
- relative viability (Entinostat + Olaparib; first compound 0.2 µM): 0.871
- relative viability (Entinostat + Olaparib; first compound 0.6325 µM): 0.693
- relative viability (Entinostat + Olaparib; first compound 2 µM): 0.536

Cell Line: LCLC-103H
- relative viability ([2]; first compound 0.02 µM): 0.809
- relative viability ([2]; first compound 0.06325 µM): 0.784
- relative viability ([2]; first compound 0.2 µM): 0.8
- relative viability ([2]; first compound 0.6325 µM): 0.81
- relative viability ([2]; first compound 2 µM): 0.631
- relative viability (Entinostat + Trametinib; first compound 0.02 µM): 0.718
- relative viability (Entinostat + Trametinib; first compound 0.06325 µM): 0.605
- relative viability (Entinostat + Trametinib; first compound 0.2 µM): 0.713
- relative viability (Entinostat + Trametinib; first compound 0.6325 µM): 0.588
- relative viability (Entinostat + Trametinib; first compound 2 µM): 0.561
- relative viability (Entinostat + Olaparib; first compound 0.02 µM): 0.748
- relative viability (Entinostat + Olaparib; first compound 0.06325 µM): 0.738
- relative viability (Entinostat + Olaparib; first compound 0.2 µM): 0.684
- relative viability (Entinostat + Olaparib; first compound 0.6325 µM): 0.528
- relative viability (Entinostat + Olaparib; first compound 2 µM): 0.447

Cell Line: NCI-H441
- relative viability ([2]; first compound 0.02 µM): 0.96
- relative viability ([2]; first compound 0.06325 µM): 1.17
- relative viability ([2]; first compound 0.2 µM): 1.1
- relative viability ([2]; first compound 0.6325 µM): 1.09
- relative viability ([2]; first compound 2 µM): 0.738
- relative viability (Entinostat + Trametinib; first compound 0.02 µM): 0.498
- relative viability (Entinostat + Trametinib; first compound 0.06325 µM): 0.687
- relative viability (Entinostat + Trametinib; first compound 0.2 µM): 0.568
- relative viability (Entinostat + Trametinib; first compound 0.6325 µM): 0.227
- relative viability (Entinostat + Trametinib; first compound 2 µM): 0.147
- relative viability (Entinostat + Olaparib; first compound 0.02 µM): 0.625
- relative viability (Entinostat + Olaparib; first compound 0.06325 µM): 0.467
- relative viability (Entinostat + Olaparib; first compound 0.2 µM): 0.317
- relative viability (Entinostat + Olaparib; first compound 0.6325 µM): 0.18
- relative viability (Entinostat + Olaparib; first compound 2 µM): 0.113

Cell Line: NCI-H520
- relative viability ([1]; first compound 0.02 µM): 0.874
- relative viability ([1]; first compound 0.06325 µM): 1.03
- relative viability ([1]; first compound 0.2 µM): 0.897
- relative viability ([1]; first compound 0.6325 µM): 0.852
- relative viability ([1]; first compound 2 µM): 0.441
- relative viability (Entinostat + Trametinib; first compound 0.02 µM): 0.698
- relative viability (Entinostat + Trametinib; first compound 0.06325 µM): 0.906
- relative viability (Entinostat + Trametinib; first compound 0.2 µM): 0.604
- relative viability (Entinostat + Trametinib; first compound 0.6325 µM): 0.698
- relative viability (Entinostat + Trametinib; first compound 2 µM): 0.355
- relative viability (Entinostat + Olaparib; first compound 0.02 µM): 0.336
- relative viability (Entinostat + Olaparib; first compound 0.06325 µM): 0.346
- relative viability (Entinostat + Olaparib; first compound 0.2 µM): 0.272
- relative viability (Entinostat + Olaparib; first compound 0.6325 µM): 0.237
- relative viability (Entinostat + Olaparib; first compound 2 µM): 0.149

Cell Line: NCI-H522
- relative viability ([2]; first compound 0.02 µM): 0.708
- relative viability ([2]; first compound 0.06325 µM): 0.867
- relative viability ([2]; first compound 0.2 µM): 0.773
- relative viability ([2]; first compound 0.6325 µM): 0.834
- relative viability ([2]; first compound 2 µM): 0.684
- relative viability (Entinostat + Trametinib; first compound 0.02 µM): 0.812
- relative viability (Entinostat + Trametinib; first compound 0.06325 µM): 0.966
- relative viability (Entinostat + Trametinib; first compound 0.2 µM): 0.799
- relative viability (Entinostat + Trametinib; first compound 0.6325 µM): 0.844
- relative viability (Entinostat + Trametinib; first compound 2 µM): 0.841
- relative viability (Entinostat + Olaparib; first compound 0.02 µM): 0.58
- relative viability (Entinostat + Olaparib; first compound 0.06325 µM): 0.713
- relative viability (Entinostat + Olaparib; first compound 0.2 µM): 0.582
- relative viability (Entinostat + Olaparib; first compound 0.6325 µM): 0.686
- relative viability (Entinostat + Olaparib; first compound 2 µM): 0.494

Cell Line: NCI-H661
- relative viability ([1]; first compound 0.02 µM): 0.53
- relative viability ([1]; first compound 0.06325 µM): 0.554
- relative viability ([1]; first compound 0.2 µM): 0.525
- relative viability ([1]; first compound 0.6325 µM): 0.351
- relative viability ([1]; first compound 2 µM): 0.406
- relative viability (Entinostat + Trametinib; first compound 0.02 µM): 0.62
- relative viability (Entinostat + Trametinib; first compound 0.06325 µM): 0.605
- relative viability (Entinostat + Trametinib; first compound 0.2 µM): 0.715
- relative viability (Entinostat + Trametinib; first compound 0.6325 µM): 0.536
- relative viability (Entinostat + Trametinib; first compound 2 µM): 0.363
- relative viability (Entinostat + Olaparib; first compound 0.02 µM): 0.696
- relative viability (Entinostat + Olaparib; first compound 0.06325 µM): 0.721
- relative viability (Entinostat + Olaparib; first compound 0.2 µM): 0.641
- relative viability (Entinostat + Olaparib; first compound 0.6325 µM): 0.567
- relative viability (Entinostat + Olaparib; first compound 2 µM): 0.339

Cell Line: NCI-H1299
- relative viability ([1]; first compound 0.02 µM): 0.929
- relative viability ([1]; first compound 0.06325 µM): 0.953
- relative viability ([1]; first compound 0.2 µM): 0.954
- relative viability ([1]; first compound 0.6325 µM): 0.975
- relative viability ([1]; first compound 2 µM): 0.691
- relative viability (Entinostat + Olaparib; first compound 0.02 µM): 1.03
- relative viability (Entinostat + Olaparib; first compound 0.06325 µM): 0.923
- relative viability (Entinostat + Olaparib; first compound 0.2 µM): 0.965
- relative viability (Entinostat + Olaparib; first compound 0.6325 µM): 0.702
- relative viability (Entinostat + Olaparib; first compound 2 µM): 0.585

Cell Line: NCI-H1563
- relative viability ([1]; first compound 0.02 µM): 0.906
- relative viability ([1]; first compound 0.06325 µM): 0.82
- relative viability ([1]; first compound 0.2 µM): 0.857
- relative viability ([1]; first compound 0.6325 µM): 0.72
- relative viability ([1]; first compound 2 µM): 0.719
